Laboratory results taken from US20140228398A1, “COMBINATIONS OF ALPHA 7 NICOTINIC ACETYLCHOLINE RECEPTOR ACTIVATORS AND mGluR5 ANTAGONISTS FOR USE IN DOPAMINE INDUCED [sequence] IN PARKINSON'S DISEASE” (NOVARTIS AG, priority 2011, published 2014).

Key:
parkinsonian primates [1] = assay: Movement disorder model: antidyskinetic effect in parkinsonian (MPTP) primates; type: in vivo, cynomolgus monkeys (Macaca fascicularis); settings: for locomotor response / mean parkinsonian score: parkinsonian primates; for mean parkinsonian score: reduced from 9.4
Experimental: Female ovariectomized cynomolgus monkeys (Macaca fascicularis) are used in the assessment. The animals can be rendered parkinsonian by continuous infusion of 1-methyl-4-phenyl-1,2,3,6-tetrahydropyridine (MPTP) until they develop a stable parkinsonian syndrome. After recuperation, animals are treated daily with levodopa until clear and reproducible dyskinesias are developed.
Monkeys are observed through a one-way screen window in their home cage. They are observed and scored repeatedly at baseline and after a standard s.c. dose of levodopa. Locomotor activity is assessed and followed with an electronic monitoring system. Antiparkinsonian responses are evaluated by measuring the locomotor activity and a Parkinson disability scale (see Hadj Tahar A et al, Clin Neuropharmacol 2000; 23:195-202; and Samadi P et al, Neuropharmacology 2003; 45:954-963). Dyskinesias are closely monitored and scored according to a dyskinesia rating scale (also described in Hadj Tahar A et al; and Samadi P et al) every 15 minutes until the end of the effect. The doses of levodopa are chosen to induce motor activation and reproducible dyskinesia but no excessive agitation.
Monkeys are observed for at least two hours following an oral administration of vehicle. On a subsequent day, the dose of levodopa selected is tested once. The animals are observed (with measures of parkinsonian and dyskinetic scores) for the entire duration of the levodopa effect and are also monitored for locomotor activity. This provides vehicle control values as well as levodopa antiparkinsonian and dyskinesia response data for comparison with combinations of a α7-nAChR agonist/positive allosteric modulator and levodopa. The monkeys are then tested with a α7-nAChR agonist/positive allosteric modulator in combination with a fixed dose of levodopa. A suspension for oral administration of the α7-nAChR agonist/positive allosteric modulator is administered before levodopa. After each dose, the animals are observed (with measures of parkinsonian and dyskinetic scores) for the entire duration of effect and monitored for locomotor activity or any change in behavior (e.g. circling, excitement, lethargy and sleepiness).
Using this protocol, compound A-1 at a dose of 20 mg/kg was tested. Results based on five monkeys (levodopa/benserazide doses: 22.5/50 mg; 65/50 mg; 30/50 mg; 35/50 mg; and 25/50 mg) are shown in FIGS. 1-4.
For experiments shown in FIGS. 5 and 6 parkinsonian primates were treated orally with 10 mg/kg MPEP, 20 mg/kg JN403 and a combination of MPEP (10 mg/kg) and JN403 (20 mg/kg). In said experiments, compound MPEP increased the locomotor response from 230 count over 4 h to 810.

[2] = Oral bioavailability and brain penetration in mice; type: in vivo; settings: 30 μmol/kg p.o., ± SD
Experimental: […] Male mice (30-35g, OF1/ICstrain) were sacrificed at indicated time points after oral administration. Trunk-blood was collected in EDTA-containing tubes and the brain was removed and immediately frozen on dry ice. To 100 μl plasma 10 μl internal standard (1.0 pmol of a compound with solubility and ionization properties similar to test compounds) was added and extracted three times with 500 μl dichloromethane. The combined extracts were then dried under a stream of nitrogen and re-dissolved in 100 μl acetonitrile/water (70% acetonitrile). Brains were weighed and homogenized in water (1:5 w/v). Two 100 μl aliquots of each homogenate+10 μl of internal standard (same standard as used for the plasma samples) were extracted three times with 500 μl dichloromethane and further processed as the plasma samples. Samples were separated on Beckmann high-performance liquid chromatography equipment system with an autosampler (Gilson 233XL).
The limit of detection (LOD), defined as the lowest concentration of the extracted standard sample with a signal to noise ratio of ˜3.

mice = assay: Social Recognition Test in mice; type: in vivo, mouse; settings: oral, dose 3 mg/kg, familiar partner at 24 h vs time 0
Experimental: Social interactions between two experimental animals are influenced by their degree of familiarity: the better they know each other, the less time they spend on mutual scrutiny at each meeting. […] Memory enhancing agents (i.e. oxiracetam) facilitate learning to the extent that the previously met (familiar) partner is still remembered after 24 h, whereas in vehicle treated control animals the memory usually fades after less than 1 hour (Thor and Holloway, 1982) or after 2-3 hours.
Baseline-test: Pairs consisting of one adult and one young mouse were assigned at random to the experimental and control groups. In each pair only the adult mouse was orally treated 1 hour before the trial with either vehicle or the test compound. The duration of active contacts of the adult mouse with the young mouse was manually recorded over a period of 3 min, including the following behavioural, approach-related items: sniffing, nosing, grooming, licking, pawing and playing, anogenital exploration and orientation toward the young mouse; orientation, thereby, was defined as tip of nose of the adult mouse less than approximately 1 cm distant from the young mouse's body. […]

parkinsonian primates [3] = settings: data published in WO2009047296 and Gregoire et al 2011; cited from earlier work
[4] = compound A-1 20 mg/kg oral with levodopa/benserazide, five monkeys

Compound | Brain ([2]; 0.5 hour) [pmol/g] | Brain ([2]; 1 hour) [pmol/g] | Brain ([2]; 2 hour) [pmol/g] | Brain ([2]; 4 hour) [pmol/g] | Brain ([2]; 24 hour) [pmol/g] | Brain ([2]; 0.25 hour) [pmol/g] | Brain ([2]; 8 hour) [pmol/g] | further results
C[C@H](OC(=O)N[C@@H]1CN2CCC1CC2)c1ccccc1F [A-1, (S)-(1-aza-bicyclo[2.2.2]oct-3-yl)-carbamic acid (S)-1-(2-fluoro-phenyl)-ethyl ester] | 706.3 ± 153.4 | 573.7 ± 109.3 | 191.9 ± 34.9 | 104.6 ± 39.6 | 9.1 ± 2.7 |  |  | antiparkinsonian activity of levodopa (antiparkinsonian score) (parkinsonian primates [1]; [4]): does not lower the antiparkinsonian activity of levodopa; onset of action of levodopa (Elapsed Time after Levodopa Administration) (parkinsonian primates [1]; [4]): does not delay the onset of action of levodopa; Duration of Levodopa-Response (parkinsonian primates [1]; compound A-1 20 mg/kg oral with levodopa/benserazide, five monkeys, extended from 230 minutes): 265 min; Mean Dyskinesia Score (total period) (parkinsonian primates [1]; compound A-1 20 mg/kg oral with levodopa/benserazide, five monkeys, reduced from 2.8): 2.1; locomotor response (parkinsonian primates [1]; oral 20 mg/kg JN403, baseline 230 count over 4 h): no effect; mean parkinsonian score (parkinsonian primates [1]; oral 20 mg/kg JN403): 9.0; Plasma ([2]; 0.5 hour): 634.9 ± 261.3 pmol/mL; Plasma ([2]; 1 hour): 684.7 ± 339.6 pmol/mL; Plasma ([2]; 2 hour): 168.2 ± 91.3 pmol/mL; Plasma ([2]; 4 hour): 85.0 ± 54.3 pmol/mL; Brain ([2]; 6 hour): 40.5 ± 12.1 pmol/g; Plasma ([2]; 6 hour): 29.5 ± 13.8 pmol/mL; Plasma ([2]; 24 hour): 3.8 ± 0.6 pmol/mL; Reduction in time scrutinizing in % ± SEM at 24 h (mice): 52 ± 4%
C[C@H]1[C@H](Oc2ccc(-c3ccc4[nH]ccc4c3)nn2)C2CCN1CC2 [B-13, (2S,3R)-3-[6-(1H-indol-5-yl)-pyridazin-3-yloxy]-2-methyl-1-aza-bicyclo[2.2.2]octane] | 2960 ± 706 | 2940 ± 335 | 1260 ± 172 | 379 ± 134 | 13 ± 4 | 1884 ± 291 | 93 ± 30 | 
c1cc2cc(-c3cnc(O[C@H]4CCN5CCC[C@@H]4C5)nc3)ccc2[nH]1 [C-1, (4S,5R)-4-[5-(1H-indol-5-yl)-pyrimidin-2-yloxy]-1-aza-bicyclo[3.3.1]nonane] | 1405 ± 539 | 1458 ± 189 | 1478 ± 259 | 842 ± 187 |  | 620 ± 221 | 362 ± 62 | 
Cc1cc(/C(=C/Nc2ccc(Cl)cc2)C(=O)Nc2ccc(Cl)cc2)on1 [E-1, (Z)—N-(4-Chloro-phenyl)-3-(4-chloro-phenylamino)-2-(3-methyl-isoxazol-5-yl)-acrylamide] |  |  |  |  |  |  |  | L-dopa induced dyskinesias (parkinsonian primates [3]): able to reduce L-dopa induced dyskinesias
Cc1cccc(C#Cc2ccccc2)n1 [F-2, 2-Methyl-6-phenylethynyl-pyridine, reference compound] |  |  |  |  |  |  |  | locomotor response (parkinsonian primates [1]; oral 10 mg/kg MPEP, increased from 230): 810 count over 4 h; mean parkinsonian score (parkinsonian primates [1]; oral 10 mg/kg MPEP): 8.2
